# Entries after “also recorded” stand apart in the source; their conditions may differ. Where two headings read alike, the source gives them in different places.
# Tests used:
# [1] = tested on: Infantile spasms (IS) patients; settings: cited from earlier work
# [2] = cited from earlier work; for adverse events (AEs) associated with treatment: IS treatment, refs [32], [1]
# [3] = tested on: rat triple hit model of IS; experiment: Rat triple hit model of IS (DOX, LPS, PCPA): spasm frequency; type: in vivo, Sprague Dawley rats; settings: for spasms/hr / spasms/hour: P5-P7, scored on P7; for spasms/hour: vehicle/milk only mean 4.5 (SD 2.3)
# From the text: Various animal models of IS have been created as tools to test efficacy of various interventions. One such example is a rat triple hit model developed by Scantlebury and co-authors. This model was developed “based on evidence that structural or functional abnormalities in cortical or subcortical structures may be necessary to produce IS.” [11]. The model uses three lesions to induce infantile spasms. The lesions include doxorubicin (DOX), lipopolysaccharide (LPS) and p-chlorophenylalanine (PCPA). DOX is an inhibitor of topo isomerase 2 that results in diffuse brain damage involving the forebrain and brainstem when injected intraventricularly. LPS can stimulate the release of inflammatory cytokines in various cell types, leading to an acute inflammatory response. Intracerebral injection of LPS in rat pups activates inflammatory cascades resulting in hypomyelination, white matter rarefaction and necrosis. PCPA depletes serotonin by inhibiting the enzyme tryptophan hydroxylase.
# In accordance with embodiments of the disclosure, tricaprilin was tested for its ability to reduce spasm frequency in this triple hit model. These studies were done using timed pregnant Sprague Dawley rats. Animals were maintained in a 12 hr light/dark cycle and had free access to food and water. The day of birth was considered as P0. Animal care and use conformed to institutional policy and guidelines of the American Association for the Accreditation of Laboratory Animal Care. All procedures and experiments were performed in accordance with the National Institute of Health Guide for the Care and Use of Laboratory Animals.
# At postnatal day (P) 3 DOX (5 μg/2.5 μl) and LPS (3 μg/1.5 μl) were given intracerebrally and at P5 PCPA is given intraperitoneally (i.p.) (200 mg/kg). Intracerebral infusions of DOX and LPS were done stereotaxically under isoflurane anesthesia. Pups were positioned in a stereotaxic frame for neonatal rat surgery (Benchmark Angle One, MyNeurolab.com, St Louis Mo.). DOX was injected into the right lateral ventricle followed by LPS into the right parietal cortex. Pups were individually placed in beakers warmed in a water bath and filled with bedding (31-33° C.) and fed via a cheek cannula. Spasms begin at day P4 and continue to P13.
# Tricaprilin was administered either by oral gavage (administered twice a day), or steadily in milk via the cheek cannula, from P5-P7. […] For gavage, tricaprilin was administered at 5 ml/kg/day and 10 ml/kg/day. When mixed with milk, tricaprilin was administered at 5, 10 and 30 ml/kg/day. Each group comprised 5 animals. Spasms were recorded and scored on P7, urine ketones collected on P7 at 6 and 12 hours after gavage and same timepoints for milk fed pups. The behaviors of the pups were monitored using a video camera for 2 hours twice daily from P4 (first post-operative day) until P20.
# The frequency of spasms varied by concentration of tricaprilin used. […] With reference to FIG. 2B, when tricaprilin was mixed with milk at 5 ml/kg/day spasms/hr were 3.1 (SD 1.7, pvalue=0.300), at 10 ml/kg/day 3.0 (SD 0.8, pvalue=0.139), and at 30 ml/kg/day 1.75 (SD 1.7, pvalue 0.079).
molecule,measurement,setting,value
C[C@]12C=CC(=O)C=C1CC[C@@H]1[C@@H]2[C@@H](O)C[C@@]2(C)[C@H]1CC[C@]2(O)C(=O)CO [Prednisolone],% of patient spasms stopped,"[1]; 40-60 mg/day, N 30, ref [17]",70%
C[C@]12C=CC(=O)C=C1CC[C@@H]1[C@@H]2C(=O)C[C@@]2(C)[C@H]1CC[C@]2(O)C(=O)CO [Prednisone],% of patient spasms stopped,"[1]; 2 mg/kg/day, N 12, ref [19]",33%
"C=CC(N)CCC(=O)O (stereo not drawn) [VGB, Vigabatrin]",adverse events (AEs) associated with treatment,[2],"sedation, irritability, insomnia and hypotonia"
same,visual field defects,"[2]; persist even with discontinuation of the drug, ref [1]",serious visual field defects that are permanent
same,% of patient spasms stopped,"[1]; 18-36 mg/kg/day, N 75, ref [18]",11%
same,% of patient spasms stopped,"[1]; 100-148 mg/kg/day, N 67, ref [18]",36%
same,% of patient spasms stopped,"[1]; 100-150 mg/kg/day, N 52, ref [17]",54%
CCCCCCCC(=O)OCC(COC(=O)CCCCCCC)OC(=O)CCCCCCC [tricaprilin],spasms/hr,"[3]; mixed with milk 5 ml/kg/day, SD 1.7, pvalue=0.300",3.1 spasms/hr
same,spasms/hr,"[3]; mixed with milk 10 ml/kg/day, SD 0.8, pvalue=0.139",3.0 spasms/hr
same,spasms/hr,"[3]; mixed with milk 30 ml/kg/day, SD 1.7, pvalue 0.079",1.75 spasms/hr
same,spasms/hour,"[3]; oral gavage 5 ml/kg/day, SD 1.6, pvalue 0.155",2.3 spasms/hour
same,spasms/hour,"[3]; oral gavage 10 ml/kg, SD 0.9, pvalue=0.036",1.4 spasms/hour
same,effect on spasms compared to vehicle (in words),[3]; oral gavage and feeding in milk,reduction in spasms/hr; also recorded: reduces spasms
"Adrenocorticotropic hormone (SYSMEHFRWGKPVGKKRRPVKVYPNGAEDESAEAFPLEF; Corticotropin; UniProt P01189 138-176, looked up) [ACTH, first line hormonal therapy for IS]",adverse events (AEs) associated with treatment,[2],"hypertension, immune suppression, infection, electrolyte imbalances, GI disturbances, ocular opacities, hypertrophic cardiomyopathy, cerebral atrophy and growth impairment"
same,% of patient spasms stopped,"[1]; 20-20 IU/day, N 24, ref [16]",58%
same,% of patient spasms stopped,"[1]; 150 IU/m2/day divided B.I.D., N 15, ref [13]",93%
same,% of patient spasms stopped,"[1]; 150 IU/m2/day, N 26, ref Hrachovy, 1994 #681}",50%
same,subjects responded with both clinical cessation of spasms and abolition of hypsarrhythmia on EEG,"[1]; high-dose natural ACTH 150 IU/m2/day given twice daily, 2 weeks then taper, Baram et al. [13]",87%

# Source: patent publication US20230181512A1, “METHODS FOR THE TREATMENT OF INFANTILE SPASMS USING MEDIUM CHAIN TRIGLYCERIDES” (Cerecin Inc., priority 2020, published 2023)
